From PubChem BioAssay AID330 (DTP/NCI, 2004)
Where “and” joins values, the source holds several entries; their conditions need not be identical. Equal values may be shown once. Inconclusive results and toxic doses are left out. Rule for the calls: active = survival T/C of 150% or more; inactive = T/C below 125% in these data.

System: P388 leukemia ip, CD2F1 mice, survival T/C
Assay: NCI In Vivo Anticancer Drug Screen. Data for tumor model P388 Leukemia (intraperitoneal) in CD2F1 (CDF1) mice
Details: endpoint: median survival time, higher = longer survival
Outline: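 Mice carrying the transplanted tumor received test compound or vehicle. Survival was recorded in each group, and the value is the treated-group measurement divided by that of the vehicle-treated control group.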

[1] = dose: 50.0 mg/kg/injection, schedule: Q01DX009 (ip), vehicle: saline
[2] = dose: 100.0 mg/kg/injection, schedule: Q01DX009 (ip), vehicle: saline
[3] = dose: 25.0 mg/kg/injection, schedule: Q01DX005 (ip), vehicle: saline with Tween-80
[4] = dose: 50.0 mg/kg/injection, schedule: Q01DX005 (ip), vehicle: saline with Tween-80
[5] = dose: 100.0 mg/kg/injection, schedule: Q01DX005 (ip), vehicle: saline with Tween-80
[6] = dose: 25.0 mg/kg/injection, schedule: Q01DX009 (ip), vehicle: distilled water + Tween-80
[7] = dose: 50.0 mg/kg/injection, schedule: Q01DX009 (ip), vehicle: distilled water + Tween-80
[8] = dose: 100.0 mg/kg/injection, schedule: Q01DX009 (ip), vehicle: distilled water + Tween-80
[9] = dose: 200.0 mg/kg/injection, schedule: Q01DX009 (ip), vehicle: distilled water + Tween-80
[10] = dose: 100.0 mg/kg/injection, schedule: Q04DX003 (ip), vehicle: saline

Measured: T/C

CN(C)c1nc(-c2ccccc2)cc(=O)[nH]1
inactive: dose: 15.0 mg/kg/injection, schedule: Q01DX009 (ip), vehicle: saline with Tween-80 102 % of control | dose: 30.0 mg/kg/injection, schedule: Q01DX009 (ip), vehicle: saline with Tween-80 108 % of control | dose: 50.0 mg/kg/injection, schedule: Q04DX003 (ip), vehicle: Klucel (hydroxypropylcellulose) (HPC) 98 % of control | dose: 60.0 mg/kg/injection, schedule: Q01DX009 (ip), vehicle: saline with Tween-80 100 % of control | dose: 100.0 mg/kg/injection, schedule: Q04DX003 (ip), vehicle: Klucel (hydroxypropylcellulose) (HPC) 94 % of control | dose: 200.0 mg/kg/injection, schedule: Q04DX003 (ip), vehicle: Klucel (hydroxypropylcellulose) (HPC) 94 % of control | dose: 400.0 mg/kg/injection, schedule: Q04DX003 (ip), vehicle: Klucel (hydroxypropylcellulose) (HPC) 92 % of control

C[N+](C)(C)NC1OC(C(O)S(=O)(=O)O)C(OCc2ccccc2)C(OCc2ccccc2)C1O (configuration not stated)
inactive: [1] 104 % of control | [2] 106 % of control

Cn1c(=O)c2[nH]c(Cl)nc2n(CCCl)c1=O
inactive: dose: 12.5 mg/kg/injection, schedule: Q01DX009 (ip), vehicle: saline with Tween-80 100 % of control and 88 % of control | dose: 25.0 mg/kg/injection, schedule: Q01DX009 (ip), vehicle: saline with Tween-80 89 % of control and 98 % of control | dose: 50.0 mg/kg/injection, schedule: Q01DX009 (ip), vehicle: saline with Tween-80 102 % of control and 95 % of control | dose: 100.0 mg/kg/injection, schedule: Q01DX009 (ip), vehicle: saline with Tween-80 104 % of control and 109 % of control

C[C@H]1CC[C@@H]2[C@@H](C)[C@H]3[C@H](C[C@H]4[C@@H]5CC=C6C[C@@H](O)CC[C@]6(C)[C@H]5C[C@H](O)[C@]34C)N2C1
inactive: dose: 25.0 mg/kg/injection, schedule: Q01DX005 (ip), vehicle: Klucel (hydroxypropylcellulose) (HPC) 101 % of control and 105 % of control

Cc1ccnc(Sc2ccc([N+](=O)[O-])cc2[N+](=O)[O-])n1
inactive: [1] 102 % of control | [2] 104 % of control | dose: 200.0 mg/kg/injection, schedule: Q01DX009 (ip), vehicle: saline 100 % of control

c1ccc(C[n+]2ccc3ccccc3c2)cc1
inactive: dose: 6.25 mg/kg/injection, schedule: Q04DX003 (ip), vehicle: saline with Tween-80 101 % of control | dose: 12.5 mg/kg/injection, schedule: Q04DX003 (ip), vehicle: saline with Tween-80 100 % of control | dose: 25.0 mg/kg/injection, schedule: Q04DX003 (ip), vehicle: saline with Tween-80 101 % of control

O=C(NC1CC1)C(Cl)Cl
inactive: dose: 50.0 mg/kg/injection, schedule: Q01DX005 (ip), vehicle: Klucel (hydroxypropylcellulose) (HPC) 103 % of control | dose: 100.0 mg/kg/injection, schedule: Q01DX005 (ip), vehicle: Klucel (hydroxypropylcellulose) (HPC) 99 % of control

CC(=O)C(C(C)=O)C(C(C)=O)C(C)=O.[Cu]
inactive: dose: 1.5 mg/kg/injection, schedule: Q01DX005 (ip), vehicle: saline with Tween-80 110 % of control | dose: 3.0 mg/kg/injection, schedule: Q01DX005 (ip), vehicle: saline with Tween-80 107 % of control | dose: 6.0 mg/kg/injection, schedule: Q01DX005 (ip), vehicle: saline with Tween-80 99 % of control | dose: 6.25 mg/kg/injection, schedule: Q01DX005 (ip), vehicle: saline with Tween-80 104 % of control

Cc1cc(=O)c2c(C)cccc2[nH]1
inactive: dose: 2.75 mg/kg/injection, schedule: Q01DX009 (ip), vehicle: saline with Tween-80 100 % of control | dose: 4.13 mg/kg/injection, schedule: Q01DX009 (ip), vehicle: saline with Tween-80 118 % of control | dose: 6.25 mg/kg/injection, schedule: Q01DX009 (ip), vehicle: saline with Tween-80 100 % of control | dose: 9.38 mg/kg/injection, schedule: Q01DX009 (ip), vehicle: saline with Tween-80 100 % of control

COc1ccc2nc(N/N=C/c3ccccn3)cc(C)c2c1
inactive: [3] 103 % of control | [4] 110 % of control and 112 % of control | [5] 103 % of control

NC(=S)Nc1ccccc1
inactive: dose: 2.5 mg/kg/injection, schedule: Q01DX009 (ip), vehicle: saline with Tween-80 100 % of control | dose: 2.5 mg/kg/injection, schedule: Q04DX003 (ip), vehicle: saline sonified 100 % of control | dose: 5.0 mg/kg/injection, schedule: Q01DX009 (ip), vehicle: saline with Tween-80 100 % of control | dose: 5.0 mg/kg/injection, schedule: Q04DX003 (ip), vehicle: saline sonified 104 % of control | dose: 10.0 mg/kg/injection, schedule: Q01DX009 (ip), vehicle: saline with Tween-80 100 % of control | dose: 10.0 mg/kg/injection, schedule: Q04DX003 (ip), vehicle: saline sonified 95 % of control

NC(=O)C(O)C1OC(COCc2ccccc2)C(OCc2ccccc2)C1OCc1ccccc1 (configuration not stated)
inactive: dose: 12.5 mg/kg/injection, schedule: Q01DX009 (ip), vehicle: distilled water + Tween-80 90 % of control and 104 % of control | [6] 92 % of control and 95 % of control | [7] 106 % of control and 100 % of control | [8] 100 % of control and 89 % of control | [9] 104 % of control and 97 % of control

C#CCN1CCCCC1
inactive: dose: 12.5 mg/kg/injection, schedule: Q01DX005 (ip), vehicle: saline 105 % of control | dose: 25.0 mg/kg/injection, schedule: Q01DX005 (ip), vehicle: saline 100 % of control | dose: 50.0 mg/kg/injection, schedule: Q01DX005 (ip), vehicle: saline 100 % of control and 107 % of control

C/C(=N\NC(=S)Nc1ccc(C(=O)O)cc1)c1ccccn1
inactive: dose: 12.5 mg/kg/injection, schedule: Q01DX005 (ip), vehicle: saline with Tween-80 110 % of control | [3] 112 % of control | [4] 109 % of control and 114 % of control

CC(=O)Oc1c[nH]c(=O)[nH]c1=O
inactive: [6] 103 % of control and 97 % of control | [7] 100 % of control and 97 % of control | [8] 102 % of control and 103 % of control and 112 % of control | [9] 109 % of control and 114 % of control and 119 % of control | dose: 400.0 mg/kg/injection, schedule: Q01DX009 (ip), vehicle: distilled water + Tween-80 103 % of control and 123 % of control

CCOC(=O)C(/C=N/NS(=O)(=O)c1ccc(C)cc1)c1ccccc1 (configuration not stated)
inactive: dose: 100.0 mg/kg/injection, schedule: Q04DX002 (ip), vehicle: saline 96 % of control | dose: 200.0 mg/kg/injection, schedule: Q04DX002 (ip), vehicle: saline 94 % of control | dose: 400.0 mg/kg/injection, schedule: Q04DX002 (ip), vehicle: saline 97 % of control

O=P(c1ccccc1)(c1ccccc1)c1ccccc1.O=P(c1ccccc1)(c1ccccc1)c1ccccc1.O=P(c1ccccc1)(c1ccccc1)c1ccccc1.O=P(c1ccccc1)(c1ccccc1)c1ccccc1.[Ce+3].[O-][Cl+3]([O-])([O-])O
inactive: dose: 50.0 mg/kg/injection, schedule: Q01DX009 (ip), vehicle: saline + Tween-80 + alcohol 96 % of control | dose: 100.0 mg/kg/injection, schedule: Q01DX009 (ip), vehicle: saline + Tween-80 + alcohol 89 % of control | dose: 200.0 mg/kg/injection, schedule: Q01DX009 (ip), vehicle: saline + Tween-80 + alcohol 87 % of control

CCNC(=O)OCc1cnc(C)c(O)c1COC(=O)NCC
inactive: [3] 102 % of control | [4] 100 % of control | [5] 99 % of control

CCN(CC)C(=O)c1ccc[n+](CCC(N)=O)c1
inactive: [10] 90 % of control | dose: 200.0 mg/kg/injection, schedule: Q04DX003 (ip), vehicle: saline 100 % of control | dose: 400.0 mg/kg/injection, schedule: Q04DX003 (ip), vehicle: saline 100 % of control

O=C(O)/C=C/CCCCCCO
inactive: dose: 100.0 mg/kg/injection, schedule: Q04DX002 (ip), vehicle: saline + alcohol 91 % of control | dose: 200.0 mg/kg/injection, schedule: Q04DX002 (ip), vehicle: saline + alcohol 100 % of control | dose: 400.0 mg/kg/injection, schedule: Q04DX002 (ip), vehicle: saline + alcohol 106 % of control

CC1(C)C(=O)C=CC2(C)C1CC(O)C1(C)C2CCC2(C)C(c3ccoc3)OC(=O)C3OC321 (configuration not stated)
inactive: dose: 1.5 mg/kg/injection, schedule: Q01DX009 (ip), vehicle: Klucel (hydroxypropylcellulose) (HPC) 98 % of control | dose: 3.0 mg/kg/injection, schedule: Q01DX009 (ip), vehicle: Klucel (hydroxypropylcellulose) (HPC) 103 % of control | dose: 6.0 mg/kg/injection, schedule: Q01DX009 (ip), vehicle: Klucel (hydroxypropylcellulose) (HPC) 101 % of control | dose: 12.0 mg/kg/injection, schedule: Q01DX009 (ip), vehicle: Klucel (hydroxypropylcellulose) (HPC) 102 % of control

CC(N)CCC(C)(C)O (configuration not stated)
inactive: dose: 25.0 mg/kg/injection, schedule: Q04DX003 (ip), vehicle: saline 100 % of control | dose: 50.0 mg/kg/injection, schedule: Q04DX003 (ip), vehicle: saline 90 % of control | [10] 100 % of control
